Test results as given in US20180092908A1, “SMALL MOLECULE OXIDIZERS OF PDI AND THEIR USE” (THE TRUSTEES OF COLUMBIA UNIVERSITY IN THE CITY OF NEW YORK, priority 2015, published 2018).
Where two headings read alike, the source gives them in different places.

Assays:
[1] = Mouse plasma stability assay; type: in vitro ADME; conditions: compound 1.0 μM
Method: Test compound (1 μM) was incubated at 37° C. for up to 120 minutes in mouse plasma. At 0, 15, 30, 60, and 120 minute intervals an 100 μL aliquot was taken and quenched with 200 μL acetonitrile (ACN) containing internal standard. Following completion of the experimentation, the samples were analyzed by LC-MS/MS. The half-life (t1/2) was calculated using the following equation: t1/2=0.693/k, where, k is the elimination rate constant of test compounds obtained by fitting the data to the equation: C=initial×exp (−k×t). Results were reported as peak area ratios of analyte to internal standard.
The microsome stability assay, plasma stability assay, and plasma protein binding assay were each performed by Alliance Pharma, Inc. (Malvern, Pa.).

[2] = Single-dose pharmacokinetic study (BBB penetration); type: in vivo; conditions: single-dose 20 mg/kg, intravenously or orally, mice
Method: LOC14 administered via (FIG. 17A) intravenous or (FIG. 17B) oral route to wild-type C57BL/6j mice at 20 mg/kg. The concentration of compound in the brain tissue and plasma is shown for each individual mouse (represented by dots). The horizontal lines represent the mean±SD (n=3).
Showing promising in vitro metabolic properties, LOC14 was tested in a single-dose pharmacokinetic (PK) study. This was a pilot study to evaluate the ability of LOC14 to traverse the blood-brain barrier (BBB). In this study, LOC14 was administered via two routes, intravenously (FIG. 17A) or orally (FIG. 17B), at a single-dose of 20 mg/kg to wild-type C57BL/6j mice.

Solubility = conditions: DMSO, Table 5
[3] = biological target: T1, human catalytic PDI A1 a domain (PDIa) (Homo sapiens, UniProt P07237); experiment: Isothermal titration calorimetry (ITC) binding to PDIa; conditions: 400 μM LOC14 into 40 μM oxidized PDIa, compared to reduced PDIa
T1 construct: made in house; host or cells: Escherichia coli BL21-Gold (DE3)
T1 sequence (P07237 with tags, fused parts or gaps): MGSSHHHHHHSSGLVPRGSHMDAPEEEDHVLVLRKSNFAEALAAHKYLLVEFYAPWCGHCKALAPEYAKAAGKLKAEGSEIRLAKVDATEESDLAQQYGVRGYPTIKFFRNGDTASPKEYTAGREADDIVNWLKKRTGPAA

cortical neurons = experiment: Tau4R-induced neurodegeneration brain slice assay; type: cell-based; conditions: rat corticostriatal brain slice, tau4R transfection, 4 days
Method: Rat corticostriatal brain slice explants co-transfected with YFP and the tau isoform with 4 tubulin-binding repeats (Tau4R) were treated with LOC14, an analog of LOC14 “BIT fragment” (1,2,Benzisothiazol-3-one), or DMSO only for 4 days. Data are plotted as mean±SEM from one of five representative experiments. *Significant by ANOVA followed by Dunnett's post hoc comparison test at p<0.05.
Next, whether LOC14 could be neuroprotective in additional models of neurodegenerative diseases was explored. […] In this rat corticostriatal brain slice assay, cortical neuron degeneration is induced by biolistic transfection with tau, in this case a tau isoform with 4 tubulin-binding repeats (“tau4R”) which is implicated in frontotemporal dementias and more broadly in Alzheimer's disease.

PC12 mHTT^Q103 cells = experiment: Rescue of PC12 cells from mHTT^Q103 induced cell death (Alamar blue viability); type: cell-based; conditions: Rattus norvegicus

Compound: O=C(C1CC1)N1CCN(Cn2sc3ccccc3c2=O)CC1 [LOC14, 2-((4-(cyclopropanecarbonyl)piperazin-1-yl)methyl)benzo[d]isothiazol-3(2H)-one]
- % Remaining after 2-hour incubation [1]: 49.9%
- Elimination rate constant (k) [1]: 0.0049
- half-life at 1 μM ([1]; read-out: Half-life (t1/2) (converted)): 2.4 h
- blood-brain barrier penetration [2]: penetrated the BBB
- tolerability [2]: well tolerated
- Solubility in DMSO (Solubility): 100 mM in DMSO
- binding affinity to oxidized PDIa [3]: loss in binding affinity
- neuroprotection in tau-mediated neurodegeneration assay (cortical neurons): strongly and reproducibly neuroprotective
- EC50 (PC12 mHTT^Q103 cells; PC-12, 48 h, read-out: EC50, rescue of PC12 mHTT^Q103 cells): 500 nM
- EC50 (PC12 mHTT^Q103 cells; PC-12, read-out: Cell Viability Assay EC50): 102 nM
